Data as given in ChEMBL document CHEMBL5131386, “Synthesis and biological evaluation of novel schisanhenol derivatives as potential hepatoprotective agents” (Eur J Med Chem, 2022).
Activity calls are given as the source filed them. No cut-off for these calls is given here.

Tests used:
[1] = test system: L02; experiment: Hepatoprotective activity against concanavalin A induced liver injury in human HL7702 cells assessed as cell survival rate at 5 uM preincubated for 12 hrs followed by concanavalin A stimulation for 12 hrs by MTT assay (reference value: 51.37%); type: functional; settings: time 24 hrs, read-out: Survival
[2] = test system: L02; experiment: Cytotoxicity against human HL7702 cells ssessed as cell survival rate at 5 uM for 12 hrs by MTT assay; type: toxicity, cell-based; settings: l02, 12 h
[3] = test system: L02; experiment: Hepatoprotective activity against concanavalin A induced human HL7702 cell apoptosis assessed as nuclear morphological changes at 5 uM preincubated for 12 hrs followed by concanavalin A stimulation for 12 hrs by Hoechst 33342 staining based fluorescence microscopy; type: functional; settings: time 24.0 hrs
[4] = test system: L02; experiment: Hepatoprotective activity against concanavalin A induced human HL7702 cell apoptosis assessed as decrease in Bax expression level at 5 uM preincubated for 12 hrs followed by concanavalin A stimulation for 12 hrs by Western blot analysis; type: functional, cell-based; settings: time 24.0 hrs
[5] = test system: L02; experiment: Hepatoprotective activity against concanavalin A induced human HL7702 cell apoptosis assessed as decrease in cleaved caspase-3 level at 5 uM preincubated for 12 hrs followed by concanavalin A stimulation for 12 hrs by Western blot analysis; type: functional, cell-based; settings: time 24.0 hrs
[6] = test system: L02; experiment: Hepatoprotective activity against concanavalin A induced human HL7702 cell apoptosis assessed as increase in Bcl-2 expression level at 5 uM preincubated for 12 hrs followed by concanavalin A stimulation for 12 hrs by Western blot analysis; type: functional, cell-based; settings: time 24.0 hrs
[7] = test system: L02; experiment: Hepatoprotective activity against concanavalin A induced livery injury in human HL7702 cells assessed as decrease in STAT3 phosphorylation level at 5 uM preincubated for 12 hrs followed by concanavalin A stimulation for 12 hrs by Western blot analysis; type: functional, cell-based; settings: time 24.0 hrs
[8] = test system: L02; experiment: Hepatoprotective activity against concanavalin A induced livery injury in human HL7702 cells assessed as decrease in JAK2 phosphorylation level at 5 uM preincubated for 12 hrs followed by concanavalin A stimulation for 12 hrs by Western blot analysis; type: functional, cell-based; settings: time 24.0 hrs
[9] = test system: L02; experiment: Hepatoprotective activity against concanavalin A induced livery injury in human HL7702 cells assessed as increase in HO-1 expression level at 5 uM preincubated for 12 hrs followed by concanavalin A stimulation for 12 hrs by Western blot analysis; type: functional, cell-based; settings: time 24.0 hrs
[10] = test system: L02; experiment: Hepatoprotective activity against concanavalin A induced livery injury in human HL7702 assessed as decrease in IL-6 expression level at 5 uM preincubated for 12 hrs followed by concanavalin A stimulation for 12 hrs by Western blot analysis; type: functional, cell-based; settings: time 24.0 hrs
[11] = test system: L02; experiment: Hepatoprotective activity against concanavalin A induced livery injury in human HL7702 assessed as decrease in IL-6 expression level at 5 uM preincubated for 24 hrs followed by concanavalin A stimulation for 12 hrs by ELISA assay; type: functional, cell-based; settings: time 36.0 hrs
[12] = test system: Mus musculus; experiment: (§1) Hepatoprotective activity against concanavalin A induced C57BL/6 mouse livery injury model assessed as decrease in serum AST level at 5 mg/kg, ip once daily for 2 weeks followed by concanavalin A stimulation and measured after 12 hrs; type: functional, organism-based
[13] = test system: Mus musculus; experiment: Hepatoprotective activity against concanavalin A induced C57BL/6 mouse livery injury model assessed as decrease in cleaved caspase 3 level at 5 mg/kg, ip once daily for 2 weeks followed by concanavalin A stimulation and measured after 12 hrs by Western blot analysis; type: functional, organism-based
[14] = test system: Mus musculus; experiment: Hepatoprotective activity against concanavalin A induced C57BL/6 mouse livery injury model assessed as decrease in serum ALT level at 5 mg/kg, ip once daily for 2 weeks followed by concanavalin A stimulation and measured after 12 hrs; type: functional, organism-based
[15] = test system: Mus musculus; experiment: Hepatoprotective activity against concanavalin A induced C57BL/6 mouse livery injury model assessed as decrease in Bax level at 5 mg/kg, ip once daily for 2 weeks followed by concanavalin A stimulation and measured after 12 hrs by Western blot analysis; type: functional, organism-based
[16] = test system: Mus musculus; experiment: Hepatoprotective activity against concanavalin A induced C57BL/6 mouse livery injury model assessed as increase in Bcl-2 level at 5 mg/kg, ip once daily for 2 weeks followed by concanavalin A stimulation and measured after 12 hrs by Western blot analysis; type: functional, organism-based
[17] = test system: Mus musculus; experiment: Hepatoprotective activity against concanavalin A induced C57BL/6 mouse livery injury model assessed as decrease in STAT3 phosphorylation level at 5 mg/kg, ip once daily for 2 weeks followed by concanavalin A stimulation and measured after 12 hrs by Western blot analysis; type: functional, organism-based
[18] = test system: Mus musculus; experiment: Hepatoprotective activity against concanavalin A induced C57BL/6 mouse livery injury model assessed as decrease in JAK2 phosphorylation level at 5 mg/kg, ip once daily for 2 weeks followed by concanavalin A stimulation and measured after 12 hrs by Western blot analysis; type: functional, organism-based
[19] = test system: Mus musculus; experiment: Hepatoprotective activity against concanavalin A induced C57BL/6 mouse livery injury model assessed as decrease in serum IL-6 level at 5 mg/kg, ip once daily for 2 weeks followed by concanavalin A stimulation and measured after 12 hrs by ELISA; type: functional, organism-based
[20] = test system: Mus musculus; experiment: Hepatoprotective activity against concanavalin A induced C57BL/6 mouse livery injury model assessed as decrease in severity of liver damage at 5 mg/kg, ip once daily for 2 weeks followed by concanavalin A stimulation and measured after 12 hrs by H&E staining based […]; type: functional, organism-based
[21] = test system: Mus musculus; experiment: as §1, with “phosphorylated STAT3” for “serum AST”, “level in liver” for “level”, “hrs by DAB staining based immunohistological anlaysis” for “hrs”; type: functional, organism-based
[22] = test system: Mus musculus; experiment: (§2) Hepatoprotective activity against concanavalin A induced C57BL/6 mouse livery injury model assessed as decrease in cleaved caspase-3 level in liver at 5 mg/kg, ip once daily for 2 weeks followed by concanavalin A stimulation and measured after 12 hrs by DAB staining based immunohistological anlaysis; type: functional, organism-based
[23] = test system: Mus musculus; experiment: Hepatoprotective activity against concanavalin A induced C57BL/6 mouse livery injury model assessed as decrease in serum AST level at 150 mg/kg, ip once daily for 2 weeks followed by concanavalin A stimulation and measured after 12 hrs; type: functional, organism-based
[24] = test system: Mus musculus; experiment: Hepatoprotective activity against concanavalin A induced C57BL/6 mouse livery injury model assessed as decrease in cleaved caspase 3 level at 150 mg/kg, ip once daily for 2 weeks followed by concanavalin A stimulation and measured after 12 hrs by Western blot analysis; type: functional, organism-based
[25] = test system: Mus musculus; experiment: Hepatoprotective activity against concanavalin A induced C57BL/6 mouse livery injury model assessed as decrease in serum ALT level at 150 mg/kg, ip once daily for 2 weeks followed by concanavalin A stimulation and measured after 12 hrs; type: functional, organism-based
[26] = test system: Mus musculus; experiment: Hepatoprotective activity against concanavalin A induced C57BL/6 mouse livery injury model assessed as decrease in Bax level at 150 mg/kg, ip once daily for 2 weeks followed by concanavalin A stimulation and measured after 12 hrs by Western blot analysis; type: functional, organism-based
[27] = test system: Mus musculus; experiment: Hepatoprotective activity against concanavalin A induced C57BL/6 mouse livery injury model assessed as increase in Bcl-2 level at 150 mg/kg, ip once daily for 2 weeks followed by concanavalin A stimulation and measured after 12 hrs by Western blot analysis; type: functional, organism-based
[28] = test system: Mus musculus; experiment: Hepatoprotective activity against concanavalin A induced C57BL/6 mouse livery injury model assessed as decrease in STAT3 phosphorylation level at 150 mg/kg, ip once daily for 2 weeks followed by concanavalin A stimulation and measured after 12 hrs by Western blot analysis; type: functional, organism-based
[29] = test system: Mus musculus; experiment: Hepatoprotective activity against concanavalin A induced C57BL/6 mouse livery injury model assessed as decrease in JAK2 phosphorylation level at 150 mg/kg, ip once daily for 2 weeks followed by concanavalin A stimulation and measured after 12 hrs by Western blot analysis; type: functional, organism-based
[30] = test system: Mus musculus; experiment: Hepatoprotective activity against concanavalin A induced C57BL/6 mouse livery injury model assessed as decrease in serum IL-6 level at 150 mg/kg, ip once daily for 2 weeks followed by concanavalin A stimulation and measured after 12 hrs by ELISA; type: functional, organism-based
[31] = test system: Mus musculus; experiment: Hepatoprotective activity against concanavalin A induced C57BL/6 mouse livery injury model assessed as decrease in severity of liver damage at 150 mg/kg, ip once daily for 2 weeks followed by concanavalin A stimulation and measured after 12 hrs by H&E staining based […]; type: functional, organism-based
[32] = test system: Mus musculus; experiment: as §2, with “in phosphorylated STAT3” for “in cleaved caspase-3”, “at 150” for “at 5”; type: functional, organism-based
[33] = test system: Mus musculus; experiment: as §2, with “at 150” for “at 5”; type: functional, organism-based

Compound	viability at 5 µM [1] [%]	Activity [2]	Activity [3]	Activity [4]	Activity [5]	Activity [6]	other results
COc1cc2c(c(OC)c1OC)-c1c(c(Cl)c(OC)c(OC)c1OCCCOC(=O)/C=C/c1ccccc1)CC(C)C(C)C2 (centres undefined)	71	–	–	–	–	–	–
COc1ccc(C(=O)Oc2c(OC)c(OC)c(Cl)c3c2-c2c(c(Cl)c(OC)c(OC)c2OC)CC(C)C(C)C3)cc1 (centres undefined)	53.6	–	–	–	–	–	–
COc1c(Cl)c2c(c(OC)c1OC)-c1c(c(Cl)c(OC)c(OC)c1OS(=O)(=O)Cc1ccccc1)CC(C)C(C)C2 (centres undefined)	71.4	–	–	–	–	–	–
COc1cc2c(c(OC)c1OC)-c1c(c(Cl)c(OC)c(OC)c1OC(=O)CCl)CC(C)C(C)C2 (centres undefined)	68.4	–	–	–	–	–	–
COc1ccc(C(=O)Oc2c(OC)c(OC)c(Cl)c3c2-c2c(cc(OC)c(OC)c2OC)CC(C)C(C)C3)cc1 (centres undefined)	70	–	–	–	–	–	–
COc1c(Cl)c2c(c(OC)c1OC)-c1c(c(Cl)c(OC)c(OC)c1OCCCOC(=O)C(CCSC)NC(=O)OC(C)(C)C)CC(C)C(C)C2 (centres undefined)	90.8	Non-Toxic	Active	Active	Active	Active	–
COc1c(O)c2c(c(Cl)c1OC)CC(C)C(C)Cc1c(Cl)c(OC)c(OC)c(OC)c1-2 (centres undefined)	67.3	–	–	–	–	–	–
COc1cc2c(c(OC)c1OC)-c1c(c(Cl)c(OC)c(OC)c1OC(=O)/C=C/c1ccccc1)CC(C)C(C)C2 (centres undefined)	110	Non-Toxic	Active	Active	Active	Active	Activity [7]: Active; Activity [8]: Active; Activity [9]: Active; Activity [10]: Active; Activity [11]: Active; Activity [12]: Active; Activity [13]: Active; Activity [14]: Active; Activity [15]: Active; Activity [16]: Active; Activity [17]: Active; Activity [18]: Active; Activity [19]: Active; Activity [20]: Active; Activity [21]: Active; Activity [22]: Active
COC(=O)c1ccc(-c2ccc(C(=O)OC)cc2)cc1 [BIPHENYL DIMETHYL DICARBOXYLATE]	63.9	–	–	–	–	–	Activity [10]: Active; Activity [11]: Active; Activity [23]: Active; Activity [24]: Active; Activity [25]: Active; Activity [26]: Active; Activity [27]: Active; Activity [28]: Active; Activity [29]: Active; Activity [30]: Active; Activity [31]: Active; Activity [32]: Active; Activity [33]: Active
COc1cc2c(c(OC)c1OC)-c1c(c(N)c(OC)c(OC)c1OS(=O)(=O)c1ccc(C)cc1)CC(C)C(C)C2 (centres undefined)	89	Non-Toxic	Active	Active	Active	Active	–
COc1cc2c(c(OC)c1OC)-c1c(c(Cl)c(OC)c(OC)c1OC(=O)c1cccnc1)CC(C)C(C)C2 (centres undefined)	93.7	Non-Toxic	Active	Active	Active	Active	Activity [7]: Active; Activity [8]: Active; Activity [9]: Active
COc1cc2c(c(OC)c1OC)-c1c(c([N+](=O)[O-])c(OC)c(OC)c1OC(=O)c1cccnc1)CC(C)C(C)C2 (centres undefined)	49.9	–	–	–	–	–	–
